Experiments:
[1] = tested on: primate; settings: Subchronic oral toxicity in nonrodent, Gavage/Intubation, dose end: 91 day, group: systemic, systemic / in life observation / clinical signs / ataxia + systemic / in life observation / clinical signs / convulsions + systemic / in …
[2] = tested on: dog; settings: Sub-acute repeat dose toxicity, beagle, Oral, Gavage/Intubation, dose end: 17 day, group: systemic
[3] = tested on: mouse; settings: Carcinogenicity, cd1, Oral, Water, dose end: 24 month, group: systemic
[4] = tested on: rat; settings: Combined chronic toxicity/carcinogenicity, sprague dawley, Oral, Water, dose end: 24 month, group: systemic
[5] = tested on: rabbit; settings: Prenatal developmental toxicity study, new zealand white, Oral, Gavage/Intubation, dose end: 19 GD
[6] = tested on: rat; settings: Subchronic dermal toxicity, sprague dawley, Topical, dose end: 13 week, group: systemic, systemic / in life observation / clinical signs / desquamation + systemic / in life observation / clinical signs / erythema + systemic / in …
[7] = tested on: rat; settings: Sub-acute repeat dose toxicity; sprague dawley; Oral; Gavage/Intubation; dose end: 4 week; group: systemic; systemic / clinical chemistry / alanine aminotransferase (alt/sgpt) / alanine aminotransferase (alt/sgpt) + systemic / clinical chemistry / …
[8] = tested on: rat; settings: Prenatal developmental toxicity study, sprague dawley, Oral, Gavage/Intubation, dose end: 17 GD, group: maternal
[9] = tested on: rat; settings: Carcinogenicity; fischer; Oral; Feed; dose end: 78 week; group: systemic; systemic / in life observation / body weight / body weight + systemic / pathology microscopic / bone marrow / atrophy
[10] = tested on: mouse; settings: Carcinogenicity; b6c3f1; Oral; Feed; dose end: 78 week; group: systemic; systemic / in life observation / body weight / body weight
[11] = tested on: rat; settings: Prenatal developmental toxicity study, sprague dawley, Oral, Gavage/Intubation, dose end: 17 GD
[12] = tested on: mouse; settings: Subchronic oral toxicity in rodents, b6c3f1, Water, dose end: 13 week, group: systemic
[13] = tested on: rabbit; settings: Prenatal developmental toxicity study, dutch, Oral, Gavage/Intubation, dose end: 18 GD
[14] = tested on: mouse; settings: Carcinogenicity, b6c3f1, Oral, Water, dose end: 104 week, group: systemic
[15] = tested on: rat; settings: Combined chronic toxicity/carcinogenicity; sprague dawley; Oral; Water; dose end: 24 month; group: systemic; systemic / in life observation / mortality / mortality + systemic / pathology gross / kidney / calculus + systemic / pathology gross / …
[16] = tested on: rat; settings: Subchronic oral toxicity in rodents, sprague dawley, Water, dose end: 13 week, group: systemic
[17] = tested on: rat; settings: Prenatal developmental toxicity study, sprague dawley, Oral, Gavage/Intubation, dose end: 15 GD
[18] = tested on: rat; settings: Subchronic oral toxicity in rodents, other, Water, dose end: 90 day, group: systemic
[19] = tested on: rabbit; settings: Prenatal developmental toxicity study, chinchilla, Oral, Gavage/Intubation, dose end: 18 GD
[20] = systemic / clinical chemistry / alanine aminotransferase (alt/sgpt) / alanine aminotransferase (alt/sgpt) + systemic / clinical chemistry / …
[21] = systemic / hematology / erythrocyte (rbc) count differential / erythrocyte (rbc) + systemic / hematology / hematocrit (hct) / hematocrit (…
[22] = systemic / pathology microscopic / stomach / hyperkeratosis + systemic / pathology microscopic / stomach / hyperplasia + systemic / in life …
[23] = group: developmental, developmental / developmental malformation / general / [other]
[24] = group: maternal, systemic / in life observation / body weight / body weight + systemic / in life observation / body weight / body weight gain + systemic / in…
[25] = reproductive / reproductive performance / postimplantation loss / postimplantation loss + reproductive / reproductive performance / …
[26] = group: developmental, developmental / developmental malformation / bone / fused + developmental / developmental malformation / brain / dilated cerebral ventricle
[27] = group: developmental, developmental / developmental malformation / bone / fused + developmental / developmental malformation / brain / dilated cerebral ventricle…
[28] = group: maternal, reproductive / reproductive performance / resorptions / resorptions + reproductive / offspring survival early / dead fetuses / dead fetuses…
[29] = systemic / pathology gross / urinary bladder / calculus
[30] = systemic / pathology gross / urinary bladder / calculus + systemic / pathology microscopic / urinary bladder / congestion
[31] = group: developmental, developmental / developmental malformation / general / crown-rump length + systemic / in life observation / body weight / fetal weight
[32] = group: maternal, systemic / in life observation / body weight / body weight
[33] = systemic / in life observation / clinical signs / distended abdomens + systemic / urinalysis / sodium / sodium
[34] = systemic / clinical chemistry / protein / protein
[35] = systemic / pathology gross / urinary bladder / calculus + systemic / pathology microscopic / urinary bladder / hyperplasia
[36] = group: developmental, developmental / developmental malformation / bone / incomplete ossification
[37] = systemic / in life observation / body weight / body weight + systemic / in life observation / clinical signs / fur (altered appearance) + …
[38] = group: developmental, developmental / developmental malformation / bone / unossified + systemic / in life observation / body weight / fetal weight
[39] = group: maternal, systemic / in life observation / body weight / body weight gain + systemic / in life observation / food consumption / food consumption
[40] = group: maternal, systemic / in life observation / body weight / body weight gain + systemic / in life observation / food consumption / food consumption + …

Question: With Cl.NCC1(Cc2noc(=O)[nH]2)CCCCC1 as the compound, how does the LEL [1] read?
Answer: 250 mg/kg/day

Question: What about the LOAEL [1] of the same compound?
Answer: > 1500 mg/kg/day

Question: What about the NEL [1] of the same compound?
Answer: 50 mg/kg/day

Question: What about the NOAEL [1] of the same compound?
Answer: ≥ 1500 mg/kg/day

Question: What does the source list for CC(C)(O)c1cnn2c(-c3ccc(F)c(-c4c(F)cccc4C#N)c3)cnc2n1?
Answer: LOAEL [2, 20]: > 15 mg/kg/day; NEL [2, 20]: 0.5 mg/kg/day; NOAEL [2, 20]: ≥ 15 mg/kg/day; LEL ([2]; systemic / clinical chemistry / albumin / albumin): 2.5 mg/kg/day

Question: Which results are given for CN(C)N [1,1-Dimethylhydrazine]?
Answer: LEL [3, 21]: 1.41 mg/kg/day; NEL [3, 21]: 0.269 mg/kg/day; LOAEL ([3]; systemic / pathology microscopic / liver / hyperplasia + systemic / pathology microscopic / liver / pigmentation): 1.91 mg/kg/day; NOAEL ([3]; systemic / pathology microscopic / liver / hyperplasia + systemic / pathology microscopic / liver / pigmentation + systemic / in life …): 0.97 mg/kg/day

Question: How did the LOAEL ([4]; systemic / pathology microscopic / stomach / hyperkeratosis + systemic / pathology microscopic / stomach / hyperplasia) turn out when Cn1sc(Cl)cc1=O [5-Chloro-2-methyl-3(2H)-isothiazolone] was run?
Answer: 6.6 mg/kg/day

Question: What about the NEL [4, 22] of the same compound?
Answer: 2 mg/kg/day

Question: What about the NOAEL [4, 22] of the same compound?
Answer: 2 mg/kg/day

Question: What about the LEL ([4]; systemic / pathology microscopic / stomach / hyperkeratosis + systemic / pathology microscopic / stomach / hyperplasia + systemic / …) of the same compound?
Answer: 6.6 mg/kg/day

Question: And the LEL [5, 23]?
Answer: 8 mg/kg/day

Question: And the LOAEL [5, 23]?
Answer: 8 mg/kg/day

Question: And the NEL [5, 23]?
Answer: 2 mg/kg/day

Question: What about the NOAEL [5, 23] of the same compound?
Answer: 2 mg/kg/day

Question: What about the LEL [5, 24] of the same compound?
Answer: 8 mg/kg/day

Question: What about the LOAEL [5, 24] of the same compound?
Answer: 8 mg/kg/day

Question: And the NEL [5, 24]?
Answer: 2 mg/kg/day

Question: And the NOAEL [5, 24]?
Answer: 2 mg/kg/day

Question: And the LEL [6]?
Answer: 0.75 mg/kg/day

Question: What about the LOAEL [6] of the same compound?
Answer: 0.75 mg/kg/day

Question: What about the NEL [6] of the same compound?
Answer: < 0.75 mg/kg/day

Question: And the NOAEL [6]?
Answer: < 0.75 mg/kg/day

Question: What does the source list for O=C(O)c1ccccc1-n1cc(C(=O)O)c(=O)c2cc(Nc3c(F)cc(F)cc3Cl)c(Cl)cc21 [AVE9423]?
Answer: LEL [7]: 200 mg/kg/day; LOAEL [7]: 200 mg/kg/day; NEL [7]: 20 mg/kg/day; NOAEL [7]: 20 mg/kg/day; LOAEL [8, 25]: > 1000 mg/kg/day; NEL [8, 25]: 40 mg/kg/day; NOAEL [8, 25]: ≥ 1000 mg/kg/day; LEL ([8]; reproductive / reproductive performance / postimplantation loss / postimplantation loss + systemic / in life observation / body weight / …): 200 mg/kg/day

Question: For CCc1nc(N)nc(N)c1-c1ccc(Cl)cc1 [Pyrimethamine], which LEL [9] is on record?
Answer: 10 mg/kg/day

Question: What about the LOAEL [9] of the same compound?
Answer: > 20 mg/kg/day

Question: And the NEL [9]?
Answer: < 10 mg/kg/day

Question: And the NOAEL [9]?
Answer: ≥ 20 mg/kg/day

Question: And the LEL [10]?
Answer: 75 mg/kg/day

Question: What about the LOAEL [10] of the same compound?
Answer: > 150 mg/kg/day

Question: What about the NEL [10] of the same compound?
Answer: < 75 mg/kg/day

Question: What about the NOAEL [10] of the same compound?
Answer: ≥ 150 mg/kg/day

Question: What about the LEL [11, 26] of the same compound?
Answer: 1.2 mg/kg/day

Question: What about the NEL [11, 26] of the same compound?
Answer: < 1.2 mg/kg/day

Question: What about the LOAEL [11, 27] of the same compound?
Answer: > 2.7 mg/kg/day

Question: And the NOAEL [11, 27]?
Answer: ≥ 2.7 mg/kg/day

Question: And the NEL ([11]; group: maternal, reproductive / reproductive performance / resorptions / resorptions)?
Answer: 1.2 mg/kg/day

Question: And the LEL [11, 28]?
Answer: 2.7 mg/kg/day

Question: And the LOAEL [11, 28]?
Answer: > 2.7 mg/kg/day

Question: What about the NOAEL [11, 28] of the same compound?
Answer: ≥ 2.7 mg/kg/day

Question: For O=c1[n-]c(=O)[nH]c(=O)[nH]1.[Na+] [Sodium cyanurate], which LEL [12, 29] is on record?
Answer: 252 mg/kg/day

Question: What about the NEL [12, 29] of the same compound?
Answer: < 252 mg/kg/day

Question: What about the LOAEL [12, 30] of the same compound?
Answer: 1990 mg/kg/day

Question: And the NOAEL [12, 30]?
Answer: 522 mg/kg/day

Question: What about the LEL [13, 31] of the same compound?
Answer: 500 mg/kg/day

Question: What about the LOAEL [13, 31] of the same compound?
Answer: 500 mg/kg/day

Question: And the NEL [13, 31]?
Answer: 200 mg/kg/day

Question: And the NOAEL [13, 31]?
Answer: 200 mg/kg/day

Question: And the LEL [13, 32]?
Answer: 200 mg/kg/day

Question: What about the LOAEL [13, 32] of the same compound?
Answer: 200 mg/kg/day

Question: What about the NEL [13, 32] of the same compound?
Answer: 50 mg/kg/day

Question: What about the NOAEL [13, 32] of the same compound?
Answer: 50 mg/kg/day

Question: And the LEL ([14]; systemic / in life observation / body weight / body weight gain)?
Answer: 100 mg/kg/day

Question: What about the NEL ([14]; systemic / in life observation / body weight / body weight gain + systemic / in life observation / clinical signs / distended abdomens + …) of the same compound?
Answer: 25.9 mg/kg/day

Question: What about the LOAEL [14, 33] of the same compound?
Answer: > 1520 mg/kg/day

Question: What about the NOAEL [14, 33] of the same compound?
Answer: ≥ 1520 mg/kg/day

Question: What about the LEL [15] of the same compound?
Answer: 371 mg/kg/day

Question: And the LOAEL [15]?
Answer: 371 mg/kg/day

Question: And the NEL [15]?
Answer: 154 mg/kg/day

Question: What about the NOAEL [15] of the same compound?
Answer: 154 mg/kg/day

Question: And the LEL [16, 34]?
Answer: 132 mg/kg/day

Question: What about the NEL [16, 34] of the same compound?
Answer: < 132 mg/kg/day

Question: And the LOAEL [16, 35]?
Answer: > 672 mg/kg/day

Question: And the NOAEL [16, 35]?
Answer: ≥ 672 mg/kg/day

Question: Which LEL [17, 36] does the source give for CCCCCCCCCCCCCC[P+](CCCC)(CCCC)CCCC.[Cl-] [Tributyltetradecylphosphonium chloride] here?
Answer: 30 mg/kg/day

Question: What about the LOAEL [17, 36] of the same compound?
Answer: 30 mg/kg/day

Question: What about the NEL [17, 36] of the same compound?
Answer: 10 mg/kg/day

Question: What about the NOAEL [17, 36] of the same compound?
Answer: 10 mg/kg/day

Question: What about the LOAEL [17, 24] of the same compound?
Answer: 120 mg/kg/day

Question: And the NEL [17, 24]?
Answer: 20 mg/kg/day

Question: What about the NOAEL [17, 24] of the same compound?
Answer: 60 mg/kg/day

Question: And the LEL ([17]; group: maternal, systemic / in life observation / food consumption / food consumption + systemic / in life observation / clinical signs / respiration (…)?
Answer: 60 mg/kg/day

Question: What about the LOAEL [18, 37] of the same compound?
Answer: 27.2 mg/kg/day

Question: What about the NEL [18, 37] of the same compound?
Answer: 2.56 mg/kg/day

Question: And the NOAEL [18, 37]?
Answer: 8.66 mg/kg/day

Question: And the LEL ([18]; systemic / organ weight / kidney / relative to body weight)?
Answer: 8.66 mg/kg/day

Question: What about the LEL [19, 38] of the same compound?
Answer: 11.2 mg/kg/day

Question: And the LOAEL [19, 38]?
Answer: 11.2 mg/kg/day

Question: What about the NEL [19, 38] of the same compound?
Answer: 3.75 mg/kg/day

Question: What about the NOAEL [19, 38] of the same compound?
Answer: 3.75 mg/kg/day

Question: What about the LEL [19, 39] of the same compound?
Answer: 11.2 mg/kg/day

Question: What about the LOAEL [19, 39] of the same compound?
Answer: 11.2 mg/kg/day

Question: What about the NEL [19, 40] of the same compound?
Answer: 3.75 mg/kg/day

Question: And the NOAEL [19, 40]?
Answer: 3.75 mg/kg/day

Source: EPA's ToxRefDB 2
